According to US11000033B2, “Ketone or oxime compound, and herbicide” (NISSAN CHEMICAL CORPORATION, priority 2014, dated 2021):

Tests used:
Assay type in all cases: in vivo
Avena fatua = assay: Test Example 5: herbicidal effect by foliage application, plastic box (symbol I); conditions: 320 g/ha, 3 weeks after application
From the text: (§1) Herbicidal Effect Test by Foliage Application
(§2) Sterilized diluvial soil was placed in a plastic box having a length of 21 cm, a width of 13 cm, and a depth of 7 cm. Each of the seeds of Digitaria ciliaris, Setaria viridis, Echinochloa crus-galli var. crus-galli, Avena fatua, Alopecurus myosuroides, Lolium multiflorum Lam., Apera spica-venti, Abutilon theophrasti, Amaranthus retroflexus, Chenopodium album, Stellaria media, Galium spurium, Veronica persica, corn, soybean, rice plant, wheat, beet, and rapeseed was sowed in a spot-like manner and was covered with the soil of a thickness of about 1.5 cm. Thereafter, the plants were grown in the greenhouse of 25° C. to 30° C. After the plants were grown for 14 days, the emulsion agent of the compound of the present invention prepared in accordance with Formulation Example 2 was diluted with water so as to be a predetermined herbicide amount and the diluted emulsion agent was uniformly applied to a foliage part with a small-size spray. 3 weeks later from the herbicide application, the effect to each plant was investigated in accordance with the criteria of Test Example 1.

[1] = tested on: Echinochloa crus-galli var. crus-galli; assay: Test Example 5: herbicidal effect by foliage application, plastic box (symbol H); conditions: 320 g/ha, 3 weeks after application
From the text: as §1, §2

corn = assay: Test Example 5: effect on crop by foliage application, plastic box (symbol c); conditions: 320 g/ha, 3 weeks after application
From the text: as §1
(§3) Sterilized diluvial soil was placed in a plastic box having a length of 21 cm, a width of 13 cm, and a depth of 7 cm. Each of the seeds of Digitaria ciliaris, Setaria viridis, Echinochloa crus-galli var. crus-galli, Avena fatua, Alopecurus myosuroides, Lolium multiflorum Lam., Apera spica-venti, Abutilon theophrasti, Amaranthus retroflexus, Chenopodium album, Stellaria media, Galium spurium, Veronica persica, corn, soybean, rice plant, wheat, beet, and rapeseed was sowed in a spot-like manner and was covered with the soil of a thickness of about 1.5 cm. Thereafter, the plants were grown in the greenhouse of 25° C. to 30° C.

Abutilon theophrasti = assay: Test Example 5: herbicidal effect by foliage application, plastic box (symbol M); conditions: 320 g/ha, 3 weeks after application
From the text: as §1, §2

[2] = tested on: Echinochloa crus-galli var. crus-galli; assay: Test Example 3: herbicidal effect by foliage application, Wagner pot (symbol H); conditions: application herbicide amount 320 g/ha
In short: (§4)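 Weeds and rice were sown in alluvial soil under 0.1–0.5 cm of standing water and grown for 14 days in a 25–30 °C greenhouse. An emulsion of the compound, diluted in water to a set dose, was sprayed evenly onto the foliage. Effect was scored against fixed criteria 3 weeks after treatment.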

Veronica persica = assay: Test Example 5: herbicidal effect by foliage application, plastic box (symbol R); conditions: 320 g/ha, 3 weeks after application
From the text: as §1, §2

[3] = tested on: directly sowed rice plant; assay: Test Example 3: effect on crop by foliage application, Wagner pot (symbol b); conditions: application herbicide amount 320 g/ha
In short: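 Steps: fill a 1/10000-are Wagner pot with alluvial soil; add water and mix to submerge at 0.1–0.5 cm depth; sow rice plus Echinochloa crus-galli var. crus-galli, Leptochloa chinensis and Cyperus difformis; grow in a 25–30 °C greenhouse.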

Apera spica-venti = assay: Test Example 5: herbicidal effect by foliage application, plastic box (symbol L); conditions: 320 g/ha, 3 weeks after application
From the text: as §1, §2

wheat = assay: Test Example 5: effect on crop by foliage application, plastic box (symbol e); conditions: 320 g/ha, 3 weeks after application
From the text: as §1, §3

soybean = assay: Test Example 5: effect on crop by foliage application, plastic box (symbol d); conditions: 320 g/ha, 3 weeks after application
From the text: as §1, §3

rice plant = assay: Test Example 5: effect on crop by foliage application, plastic box (symbol b); conditions: 320 g/ha, 3 weeks after application
From the text: as §1, §3

Leptochloa chinensis = assay: Test Example 3: herbicidal effect by foliage application, Wagner pot (symbol D); conditions: application herbicide amount 320 g/ha
In short: as §4

Setaria viridis = assay: Test Example 5: herbicidal effect by foliage application, plastic box (symbol G); conditions: 320 g/ha, 3 weeks after application
From the text: as §1, §2

beet = assay: Test Example 5: effect on crop by foliage application, plastic box (symbol f); conditions: 320 g/ha, 3 weeks after application
From the text: as §1, §3

rapeseed = assay: Test Example 5: effect on crop by foliage application, plastic box (symbol g); conditions: 320 g/ha, 3 weeks after application
From the text: as §1, §3

Cyperus difformis = assay: Test Example 3: herbicidal effect by foliage application, Wagner pot (symbol E); conditions: application herbicide amount 320 g/ha
Method: as §1
After alluvial soil was placed into 1/10000 are of Wagner pot, water was poured and mixed to form a submerged condition having a water depth of 0.1 cm to 0.5 cm. Seeds of Echinochloa crus-galli var. crus-galli, Leptochloa chinensis, Cyperus difformis, and rice were sowed and the pot was placed in the greenhouse of 25° C. to 30° C. to grow the plants. After the plants were grown for 14 days, the emulsion agent of the compound of the present invention prepared in accordance with Formulation Example 2 was diluted with water so as to be a predetermined herbicide amount and the diluted emulsion agent was uniformly applied to a foliage part with a small-size spray. 3 weeks later from the herbicide application, the effect to each plant was investigated in accordance with the criteria of Test Example 1.

Alopecurus myosuroides = assay: Test Example 5: herbicidal effect by foliage application, plastic box (symbol J); conditions: 320 g/ha, 3 weeks after application
From the text: as §1, §2

Lolium multiflorum Lam. = assay: Test Example 5: herbicidal effect by foliage application, plastic box (symbol K); conditions: 320 g/ha, 3 weeks after application
From the text: as §1, §2

Digitaria ciliaris = assay: Test Example 5: herbicidal effect by foliage application, plastic box (symbol F); conditions: 320 g/ha, 3 weeks after application
From the text: as §1, §2

Galium spurium = assay: Test Example 5: herbicidal effect by foliage application, plastic box (symbol Q); conditions: 320 g/ha, 3 weeks after application
From the text: as §1, §2

Stellaria media = assay: Test Example 5: herbicidal effect by foliage application, plastic box (symbol P); conditions: 320 g/ha, 3 weeks after application
From the text: as §1, §2

Amaranthus retroflexus = assay: Test Example 5: herbicidal effect by foliage application, plastic box (symbol N); conditions: 320 g/ha, 3 weeks after application
From the text: as §1, §2

Chenopodium album = assay: Test Example 5: herbicidal effect by foliage application, plastic box (symbol O); conditions: 320 g/ha, 3 weeks after application
From the text: as §1, §2

CCOC(=O)C(C(=O)C(C)C)C1CC(O)=C(c2c(C)cc(Br)cc2C)C1=O (mixture of isomers) [10-001]
I: Avena fatua, herbicidal effect grade (Avena fatua): 1 (Herbicidal ratio of 5% or higher and lower than 20%)
H: Echinochloa crus-galli var. crus-galli, herbicidal effect grade [1]: 4 (Herbicidal ratio of 70% or higher and lower than 90%)
c: corn, effect on crop grade (corn): 1 (Herbicidal ratio of 5% or higher and lower than 20%)
M: Abutilon theophrasti, herbicidal effect grade (Abutilon theophrasti): 0 (Herbicidal ratio of 5% or lower (almost no effect))
H (Echinochloa crus-galli var. crus-galli) herbicidal effect grade ([2]; Table 24): 5 (Herbicidal ratio of 90% or more (almost completely withered))
R: Veronica persica, herbicidal effect grade (Veronica persica): 0 (Herbicidal ratio of 5% or lower (almost no effect))
b (directly sowed rice plant) effect on crop grade ([3]; Table 24): 3 (Herbicidal ratio of 40% or higher and lower than 70%)
L: Apera spica-venti, herbicidal effect grade (Apera spica-venti): 0 (Herbicidal ratio of 5% or lower (almost no effect))
e: wheat, effect on crop grade (wheat): 0 (Herbicidal ratio of 5% or lower (almost no effect))
d: soybean, effect on crop grade (soybean): 0 (Herbicidal ratio of 5% or lower (almost no effect))
b: directly sowed rice plant, effect on crop grade (rice plant): 2 (Herbicidal ratio of 20% or higher and lower than 40%)
D (Leptochloa chinensis) herbicidal effect grade (Leptochloa chinensis; Table 24): 4 (Herbicidal ratio of 70% or higher and lower than 90%)
G: Setaria viridis, herbicidal effect grade (Setaria viridis): 2 (Herbicidal ratio of 20% or higher and lower than 40%)
f: beet, effect on crop grade (beet): 0 (Herbicidal ratio of 5% or lower (almost no effect))
g: rapeseed, effect on crop grade (rapeseed): 0 (Herbicidal ratio of 5% or lower (almost no effect))
E herbicidal effect grade (Cyperus difformis; Table 24): 0 (Herbicidal ratio of 5% or lower (almost no effect))
J: Alopecurus myosuroides, herbicidal effect grade (Alopecurus myosuroides): 1 (Herbicidal ratio of 5% or higher and lower than 20%)
K: Lolium multiflorum Lam., herbicidal effect grade (Lolium multiflorum Lam.): 3 (Herbicidal ratio of 40% or higher and lower than 70%)
F: Digitaria ciliaris, herbicidal effect grade (Digitaria ciliaris): 3 (Herbicidal ratio of 40% or higher and lower than 70%)
Q: Galium spurium, herbicidal effect grade (Galium spurium): 0 (Herbicidal ratio of 5% or lower (almost no effect))
P: Stellaria media, herbicidal effect grade (Stellaria media): 0 (Herbicidal ratio of 5% or lower (almost no effect))
N: Amaranthus retroflexus, herbicidal effect grade (Amaranthus retroflexus): 0 (Herbicidal ratio of 5% or lower (almost no effect))
O: Chenopodium album, herbicidal effect grade (Chenopodium album): 0 (Herbicidal ratio of 5% or lower (almost no effect))

CON=C(C)CC1CC(OC)=C(c2c(C)cc(C=Cc3ccccc3)cc2C)C1=O (stereo not shown) [6-068]
I: Avena fatua, herbicidal effect (criteria of Test Example 1) (Avena fatua): 0 (Herbicidal ratio of 5% or lower (almost no effect))
H: Echinochloa crus-galli var. crus-galli, herbicidal effect (criteria of Test Example 1) [1]: 3 (Herbicidal ratio of 40% or higher and lower than 70%)
c: corn, effect on crop (criteria of Test Example 1) (corn): 4 (Herbicidal ratio of 70% or higher and lower than 90%)
M: Abutilon theophrasti, herbicidal effect (criteria of Test Example 1) (Abutilon theophrasti): 0 (Herbicidal ratio of 5% or lower (almost no effect))
herbicidal effect on H (Echinochloa crus-galli var. crus-galli), grade 0-5 [2]: 0 (Herbicidal ratio of 5% or lower (almost no effect))
R: Veronica persica, herbicidal effect (criteria of Test Example 1) (Veronica persica): 0 (Herbicidal ratio of 5% or lower (almost no effect))
effect on crop b (directly sowed rice plant), grade 0-5 [3]: 0 (Herbicidal ratio of 5% or lower (almost no effect))
L: Apera spica-venti, herbicidal effect (criteria of Test Example 1) (Apera spica-venti): 0 (Herbicidal ratio of 5% or lower (almost no effect))
e: wheat, effect on crop (criteria of Test Example 1) (wheat): 0 (Herbicidal ratio of 5% or lower (almost no effect))
d: soybean, effect on crop (criteria of Test Example 1) (soybean): 0 (Herbicidal ratio of 5% or lower (almost no effect))
b: directly sowed rice plant, effect on crop (criteria of Test Example 1) (rice plant): 1 (Herbicidal ratio of 5% or higher and lower than 20%)
herbicidal effect on D (Leptochloa chinensis), grade 0-5 (Leptochloa chinensis): 2 (Herbicidal ratio of 20% or higher and lower than 40%)
G: Setaria viridis, herbicidal effect (criteria of Test Example 1) (Setaria viridis): 3 (Herbicidal ratio of 40% or higher and lower than 70%)
f: beet, effect on crop (criteria of Test Example 1) (beet): 0 (Herbicidal ratio of 5% or lower (almost no effect))
g: rapeseed, effect on crop (criteria of Test Example 1) (rapeseed): 2 (Herbicidal ratio of 20% or higher and lower than 40%)
herbicidal effect on E, grade 0-5 (Cyperus difformis): 0 (Herbicidal ratio of 5% or lower (almost no effect))
J: Alopecurus myosuroides, herbicidal effect (criteria of Test Example 1) (Alopecurus myosuroides): 0 (Herbicidal ratio of 5% or lower (almost no effect))
K: Lolium multiflorum Lam., herbicidal effect (criteria of Test Example 1) (Lolium multiflorum Lam.): 0 (Herbicidal ratio of 5% or lower (almost no effect))
F: Digitaria ciliaris, herbicidal effect (criteria of Test Example 1) (Digitaria ciliaris): 0 (Herbicidal ratio of 5% or lower (almost no effect))
Q: Galium spurium, herbicidal effect (criteria of Test Example 1) (Galium spurium): 0 (Herbicidal ratio of 5% or lower (almost no effect))
P: Stellaria media, herbicidal effect (criteria of Test Example 1) (Stellaria media): 2 (Herbicidal ratio of 20% or higher and lower than 40%)
N: Amaranthus retroflexus, herbicidal effect (criteria of Test Example 1) (Amaranthus retroflexus): 0 (Herbicidal ratio of 5% or lower (almost no effect))
O: Chenopodium album, herbicidal effect (criteria of Test Example 1) (Chenopodium album): 0 (Herbicidal ratio of 5% or lower (almost no effect))
